Values after ≈ are worked out from the molar mass of the structure shown.
Tests used:
Staphylococcus aureus [1] = assay: Antibacterial activity against Methycillin-resistant Staphylococcus aureus ATCC 43300 assessed as inhibition of bacterial growth measured after 24 hrs by broth dilution method; assay type: functional
Staphylococcus aureus [2] = assay: Antibacterial activity against Staphylococcus aureus ATCC 29213 assessed as inhibition of bacterial growth measured after 24 hrs by broth dilution method; assay type: functional
Staphylococcus aureus [3] = assay: Antibacterial activity against Staphylococcus aureus AD3 assessed as inhibition of bacterial growth measured after 24 hrs by broth dilution method; assay type: functional
Staphylococcus aureus [4] = assay: Antibacterial activity against Staphylococcus aureus 144 assessed as inhibition of bacterial growth measured after 24 hrs by broth dilution method; assay type: functional
Escherichia coli [5] = assay: Antibacterial activity against Escherichia coli ATCC 25922 assessed as inhibition of bacterial growth measured after 24 hrs by broth dilution method; assay type: functional
Staphylococcus aureus [6] = assay: Bactericidal activity against Methycillin-resistant Staphylococcus aureus ATCC 43300 assessed as inhibition of bacterial growth measured after 96 hrs by broth dilution method; assay type: functional
Staphylococcus aureus [7] = assay: Bactericidal activity against Staphylococcus aureus ATCC 29213 assessed as inhibition of bacterial growth measured after 96 hrs by broth dilution method; assay type: functional
Staphylococcus aureus [8] = assay: Bactericidal activity against Staphylococcus aureus AD3 assessed as inhibition of bacterial growth measured after 96 hrs by broth dilution method; assay type: functional
Staphylococcus aureus [9] = assay: Bactericidal activity against Staphylococcus aureus 144 assessed as inhibition of bacterial growth measured after 96 hrs by broth dilution method; assay type: functional
Escherichia coli [10] = assay: Bactericidal activity against Escherichia coli ATCC 25922 assessed as inhibition of bacterial growth measured after 96 hrs by broth dilution method; assay type: functional
RAW264.7 [11] = assay: Cytotoxicity against mouse RAW264.7 cells assessed as reduced cell viability at 4 ug/ml measured after 16 hrs by MTT assay; assay type: cell-based; details: raw264.7, 16 h, dose 4 µg/ml
HepG2 = assay: Cytotoxicity against human HepG2 cells assessed as reduced cell viability at 4 ug/ml measured after 16 hrs by MTT assay; assay type: cell-based; details: hepg2, 16 h, dose 4 µg/ml
RAW264.7 [12] = assay: Cytotoxicity against mouse RAW264.7 cells assessed as reduced cell viability at 4 ug/ml measured after 16 hrs by MTT assay relative to control; assay type: cell-based; details: raw264.7, 16 h, at 4 µg/mL
Staphylococcus aureus [13] = assay: Bactericidal activity against methicillin-resistant Staphylococcus aureus ATCC 43300 assessed as reduction in bacterial growth at 4X MIC measured for 24 hrs by time kill assay; assay type: functional; set-up: scale not given: the % may be the effect or the level left
Staphylococcus aureus [14] = assay: (§1) Antibacterial activity against methicillin-resistant Staphylococcus aureus ATCC 43300 assessed as post antibiotic effect by measuring time required for increase in 1 log10 CFU/ml of bacteria at 2X MIC incubated for 2 hrs followed by compound washout and measured after 20 hrs by time-kill assay (reference value: 2.51 hrs); assay type: functional
Staphylococcus aureus [15] = assay: as §1, with “4X” for “2X”; assay type: functional
Staphylococcus aureus [16] = assay: as §1, with “2.44” for “2.51”; assay type: functional
Staphylococcus aureus [17] = assay: as §1, with “4X” for “2X”, “2.44” for “2.51”; assay type: functional
Staphylococcus aureus [18] = assay: Antibacterial activity against methicillin-resistant Staphylococcus aureus ATCC 43300 infected in neutropenic CD1 mouse model of thigh infection assessed as reduction in bacterial colony forming unit in thigh at 20 mg/kg, iv qd measured after 24 hrs relative to control; assay type: functional
Staphylococcus aureus [19] = assay: Antibacterial activity against methicillin-resistant Staphylococcus aureus ATCC 43300 assessed as inhibition of bacterial growth measured after 8 passages at sub-MIC concentration incubated for 24 hrs by resistant development assay; assay type: functional

Row | SMILES | MIC (Staphylococcus aureus [1]) | MIC (Staphylococcus aureus [2]) | MIC (Staphylococcus aureus [3]) | MIC (Staphylococcus aureus [4]) | MIC (Escherichia coli [5]) | MBC (Staphylococcus aureus [6]) | MBC (Staphylococcus aureus [7]) | MBC (Staphylococcus aureus [8]) | MBC (Staphylococcus aureus [9]) | MBC (Escherichia coli [10]) | Activity (RAW264.7 [11]) | Activity (HepG2) | Activity (RAW264.7 [12]) | Activity (Staphylococcus aureus [13]) | Time (Staphylococcus aureus [14]) | Time (Staphylococcus aureus [15]) | Time (Staphylococcus aureus [16]) | Time (Staphylococcus aureus [17]) | Activity (Staphylococcus aureus [18]) | MIC (Staphylococcus aureus [19])
1 | C=C[C@]1(C)C[C@@H](OC(=O)CSc2nnc(C)n2/N=C/c2ccc(N3CCCC3)cc2)[C@]2(C)[C@H](C)CC[C@]3(CCC(=O)[C@H]32)[C@@H](C)[C@@H]1O | 1 µg/mL (≈ 1.54 µM) | 2 µg/mL (≈ 3.09 µM) | 2 µg/mL (≈ 3.09 µM) | 2 µg/mL (≈ 3.09 µM) | > 64 µg/mL | 2 µg/mL (≈ 3.09 µM) | 4 µg/mL (≈ 6.17 µM) | 4 µg/mL (≈ 6.17 µM) | 4 µg/mL (≈ 6.17 µM) | > 64 µg/mL | Non-Toxic | Non-Toxic | – | – | – | – | – | – | – | –
2 | C=C[C@]1(C)C[C@@H](OC(=O)CSc2nnc(C)n2/N=C/c2ccc(N(C)C)cc2)[C@]2(C)[C@H](C)CC[C@]3(CCC(=O)[C@H]32)[C@@H](C)[C@@H]1O | 0.5 µg/mL (≈ 0.804 µM) | 0.5 µg/mL (≈ 0.804 µM) | 1 µg/mL (≈ 1.61 µM) | 2 µg/mL (≈ 3.22 µM) | > 64 µg/mL | 1 µg/mL (≈ 1.61 µM) | 2 µg/mL (≈ 3.22 µM) | 4 µg/mL (≈ 6.43 µM) | 4 µg/mL (≈ 6.43 µM) | > 64 µg/mL | Non-Toxic | Non-Toxic | – | – | – | – | – | – | – | –
3 | C=C[C@]1(C)C[C@@H](OC(=O)CSc2nnc(C)n2/N=C/c2ccc(C)cc2)[C@]2(C)[C@H](C)CC[C@]3(CCC(=O)[C@H]32)[C@@H](C)[C@@H]1O | 0.5 µg/mL (≈ 0.843 µM) | 1 µg/mL (≈ 1.69 µM) | 1 µg/mL (≈ 1.69 µM) | 2 µg/mL (≈ 3.37 µM) | > 64 µg/mL | 1 µg/mL (≈ 1.69 µM) | 2 µg/mL (≈ 3.37 µM) | 4 µg/mL (≈ 6.75 µM) | 4 µg/mL (≈ 6.75 µM) | > 64 µg/mL | – | Non-Toxic | 30% | – | – | – | – | – | – | –
4 | C=C[C@]1(C)C[C@@H](OC(=O)CSc2nnc(C)n2/N=C/c2ccc(O)cc2)[C@]2(C)[C@H](C)CC[C@]3(CCC(=O)[C@H]32)[C@@H](C)[C@@H]1O | 0.25 µg/mL (≈ 0.42 µM) | 0.5 µg/mL (≈ 0.841 µM) | 0.5 µg/mL (≈ 0.841 µM) | 1 µg/mL (≈ 1.68 µM) | > 64 µg/mL | 1 µg/mL (≈ 1.68 µM) | 2 µg/mL (≈ 3.36 µM) | 2 µg/mL (≈ 3.36 µM) | 2 µg/mL (≈ 3.36 µM) | > 64 µg/mL | Non-Toxic | Non-Toxic | – | 99.9% | 2.55 h | 3.22 h | – | – | – | –
5 | C=C[C@]1(C)C[C@@H](OC(=O)CSc2nnc(C)n2/N=C/c2ccc(N(CC)CC)cc2)[C@]2(C)[C@H](C)CC[C@]3(CCC(=O)[C@H]32)[C@@H](C)[C@@H]1O | 4 µg/mL (≈ 6.15 µM) | 4 µg/mL (≈ 6.15 µM) | 4 µg/mL (≈ 6.15 µM) | 4 µg/mL (≈ 6.15 µM) | > 64 µg/mL | 4 µg/mL (≈ 6.15 µM) | 8 µg/mL (≈ 12.3 µM) | 16 µg/mL (≈ 24.6 µM) | 8 µg/mL (≈ 12.3 µM) | > 64 µg/mL | Non-Toxic | Non-Toxic | – | – | – | – | – | – | – | –
6 | C=C[C@]1(C)C[C@@H](OC(=O)CSCCN(CC)CC)[C@]2(C)[C@H](C)CC[C@]3(CCC(=O)[C@H]32)[C@@H](C)[C@@H]1O [TIAMULIN] | 0.5 µg/mL (≈ 1.01 µM) | 1 µg/mL (≈ 2.03 µM) | 1 µg/mL (≈ 2.03 µM) | 1 µg/mL (≈ 2.03 µM) | > 64 µg/mL | 1 µg/mL (≈ 2.03 µM) | 1 µg/mL (≈ 2.03 µM) | 2 µg/mL (≈ 4.05 µM) | 2 µg/mL (≈ 4.05 µM) | > 64 µg/mL | – | – | – | – | – | – | 1.72 h | 2.14 h | -1.4 log10CFU/ml | 32 µg/mL (≈ 64.8 µM)
